Test results: ChEMBL document CHEMBL4819151, “Synthesis, optimization, in vitro and in vivo study of bicyclic substituted amine as MenA inhibitor” (Bioorg Med Chem Lett, 2021)
≈ marks a conversion by molar mass, not a printed value. Calls of active or inactive are those of the source. The rule behind the calls is not given here.

Key:
Staphylococcus aureus [1] = assay: Antibacterial activity against methicillin-resistant Staphylococcus aureus USA300 assessed as bacterial growth inhibition measured by two-fold serial microdilution method; type: functional
[2] = tested on: Mycobacterium tuberculosis; assay: Antitubercular activity against Mycobacterium tuberculosis H37Ra assessed as bacterial growth inhibition in the presence of 7H10/OADC medium; type: functional
Staphylococcus aureus [3] = assay: Bactericidal activity against methicillin-resistant Staphylococcus aureus USA300 at 16 ug/ml measured for 48 hrs in presence of menaquinone, MK4 by time kill assay curve based analysis; type: functional; conditions: dose 16 µg/ml
Staphylococcus aureus [4] = assay: Antibacterial activity against methicillin-resistant Staphylococcus aureus USA300 assessed as bacterial growth inhibition at 8 ug/ml measured by two-fold serial microdilution method; type: functional, organism-based; conditions: dose 8.0 µg/ml
Staphylococcus aureus [5] = assay: Antibacterial activity against methicillin-resistant Staphylococcus aureus USA300 infected in Caenorhabditis elegans N2 worms assessed as worms killing at 5 ug/ml measured after 4 days; type: functional; conditions: dose 5 µg/ml; time 4 day
Staphylococcus aureus [6] = assay: Antibacterial activity against methicillin-resistant Staphylococcus aureus USA300 assessed as bacterial growth inhibition at 8 ug/ml incubated for 24 hrs in presence 100 ug/ml of menaquinone, MK4 measured by two-fold serial microdilution method; type: functional, organism-based; conditions: dose 8.0 µg/ml
Staphylococcus aureus [7] = assay: Antibacterial activity against methicillin-resistant Staphylococcus aureus USA300 infected in Caenorhabditis elegans N2 worms assessed as worms killing at 25 ug/ml measured after 4 days; type: functional; conditions: dose 25 µg/ml; time 4 day
Staphylococcus aureus [8] = assay: Bactericidal activity against methicillin-resistant Staphylococcus aureus USA300 assessed as eradication in population size at 8 to 16 ug/ml measured after 2 hrs by time kill assay curve based analysis; type: functional, organism-based; conditions: dose 8-16 µg/ml
Staphylococcus aureus [9] = assay: Bactericidal activity against methicillin-resistant Staphylococcus aureus USA300 assessed as log10 reduction in microbial growth at 8 ug/ml in presence of menaquinone, MK4 measured after 8 hrs by time kill assay curve based analysis; type: functional; conditions: dose 8 µg/ml
[10] = target: T1, 1,4-dihydroxy-2-naphthoate octaprenyltransferase (Mycobacterium tuberculosis, UniProt P9WIP3); assay: Inhibition of Mycobacterium tuberculosis MenA
T1 sequence (P9WIP3 whole entry): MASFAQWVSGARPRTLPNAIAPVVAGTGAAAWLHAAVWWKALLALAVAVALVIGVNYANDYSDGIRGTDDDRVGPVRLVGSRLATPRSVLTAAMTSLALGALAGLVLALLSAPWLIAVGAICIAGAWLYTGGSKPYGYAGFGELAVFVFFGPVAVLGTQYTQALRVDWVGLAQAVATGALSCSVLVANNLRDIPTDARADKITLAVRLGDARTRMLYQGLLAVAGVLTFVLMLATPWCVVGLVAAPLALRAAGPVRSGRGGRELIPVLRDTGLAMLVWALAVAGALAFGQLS

Staphylococcus aureus [11] = assay: Antibacterial activity against methicillin-resistant Staphylococcus aureus USA300 assessed as bacterial growth inhibition in CAMH medium measured by two-fold serial microdilution method; type: functional
[12] = Toxicity in Balb/cJ mouse assessed as drug tolerability at 200 ug INH administered for 4 days; conditions: in vivo, inhaled_or_intranasal, 96 h, at 200 µg, time 4 day
[13] = Drug uptake in Balb/cJ mouse lungs at 200 ug INH administered for 4 days and measured on day 5 by reverse-phase HPLC analysis; type: ADME, tissue-based, Lung; conditions: in vivo, 120 h, at 200 µg, time 5 day
[14] = Toxicity in Balb/cJ mouse assessed as body weight loss at 200 ug INH administered for 4 days and observed on day 5; conditions: in vivo, inhaled_or_intranasal, 120 h, dose 200 µg, time 5 day
[15] = Toxicity in Balb/cJ mouse assessed as effect on lung damage at 10 mg/kg, INH administered for 4 days and measured on day 5 by H and E staining microscopic analysis; type: organism-based; conditions: in vivo, inhaled_or_intranasal, 120 h, time 5 day
[16] = Toxicity in Balb/cJ mouse assessed as effect on lung inflammation at 10 mg/kg, INH administered for 4 days and measured on day 5 by H and E staining microscopic analysis; type: organism-based; conditions: in vivo, inhaled_or_intranasal, 120 h, time 5 day
[17] = tested on: Mycobacterium tuberculosis; assay: Antitubercular activity against Mycobacterium tuberculosis H37Rv; type: functional
[18] = target: T1, 1,4-dihydroxy-2-naphthoate octaprenyltransferase; assay: Competitive inhibition of Mycobacterium tuberculosis H37Rv membrane MenA using DHNA as a substrate in presence of [1-3H]FPP or [1-3H]GGPP; type: cell membranes
Staphylococcus aureus [19] = assay: Antibacterial activity against methicillin-resistant Staphylococcus aureus USA300 infected in Caenorhabditis elegans N2 worms assessed as worms survival at 25 ug/ml measured after 4 days; type: functional; conditions: dose 25 µg/ml; time 4 day
Staphylococcus aureus [20] = assay: Antibacterial activity against methicillin-resistant Staphylococcus aureus USA300 infected in Caenorhabditis elegans N2 worms assessed as worms survival at 5 ug/ml measured after 4 days; type: functional; conditions: dose 5 µg/ml; time 4 day

Work on `CC(C)=CCC/C(C)=C/CNC1CC1` yielded an MIC (Staphylococcus aureus [1]) greater than 128 µg/mL and an MIC [2] greater than 128 µg/mL.

With `CC(C)=CCC/C(C)=C/CC/C(C)=C/CNCCc1ccc(F)cc1` the Activity (Staphylococcus aureus [3]) was 100%, the Activity (Staphylococcus aureus [4]) was “Active” and the Activity (Staphylococcus aureus [5]) was 83%. For the same compound, the MIC (Staphylococcus aureus [1]) was 8 µg/mL (≈ 23.3 µM), the Activity (Staphylococcus aureus [6]) was “inactive” and the MIC [2] was 4 µg/mL. The Activity (Staphylococcus aureus [7]) was 100%, the Activity (Staphylococcus aureus [8]) was “Active” and the Activity (Staphylococcus aureus [9]) was 3.5 log10CFU/ml.

`COc1ccc2ccc(OCCCOCC=C(C)C)cc2c1` gave an MIC (Staphylococcus aureus [1]) greater than 256 µg/mL.

`CC(C)=CCC/C(C)=C/CNC1CCCC1` showed an MIC (Staphylococcus aureus [1]) of 128 µg/mL (≈ 578 µM) and an MIC [2] of 64 µg/mL.

`COc1ccc2ccc(OCCCCCCCCN3CCCCC3)cc2c1` showed an IC50 [10] of 13.5 µM and an Activity (Staphylococcus aureus [11]) of 16 µg/mL.

In the case of `CC(C)=CCC/C(C)=C/CNCCc1ccc(F)cc1`, the MIC (Staphylococcus aureus [1]) is reported as 32 µg/mL (≈ 116 µM).

`C=CCN(C)CCCCCCCCOc1ccc2ccc(OC)cc2c1` gave an Activity [12] of 100%, an IC50 [10] of 16.9 µM and a Drug uptake [13] of 32.4%. The Activity (Staphylococcus aureus [1]) was “Active”, the Activity [14] was “Non-Toxic” and the Activity (Staphylococcus aureus [11]) was 16 µg/mL. For the same compound, the Activity [15] was “Non-Toxic” and the Activity [16] was “Non-Toxic”.

Work on `CC(C)=CCC/C(C)=C/CC/C(C)=C/CNC1CCCC1` yielded an MIC (Staphylococcus aureus [1]) of 16 µg/mL (≈ 55.3 µM).

In the case of `Fc1ccc(CCNCCCCCCCCNCCc2ccc(F)cc2)cc1`, the MIC (Staphylococcus aureus [1]) is reported as 16 µg/mL (≈ 41.2 µM) and the MIC [2] is reported as 32 µg/mL.

In the case of `CC(=O)NC[C@H]1CN(c2ccc(N3CCOCC3)c(F)c2)C(=O)O1` [LINEZOLID], the MIC (Staphylococcus aureus [1]) is reported as 1 µg/mL (≈ 2.96 µM).

`Fc1ccc(CNCCCCCCCCNCc2ccc(F)cc2)cc1` gave an MIC (Staphylococcus aureus [1]) of 64 µg/mL (≈ 178 µM).

Work on `CC(C)=CCC/C(C)=C/CC/C(C)=C/CNC1CC1` yielded an MIC (Staphylococcus aureus [1]) of 16 µg/mL (≈ 61.2 µM).

`C=CCN(C)C/C=C(\C)CC/C=C(\C)CCC=C(C)C` gave an MIC [17] of 6.1 µg/mL (≈ 22.1 µM) and an IC50 [18] of 20 µM.

For `CC(C)=CCC/C(C)=C/CC/C(C)=C/COC(=O)C(N)CC(=O)O` (stereo not given), the MIC [17] was 12.5 µg/mL (≈ 37 µM) and the IC50 [18] was 5.33 µM.

Work on `CC(C)=CCC/C(C)=C/CC/C(C)=C/CN1CCCCC1` yielded an MIC (Staphylococcus aureus [1]) of 32 µg/mL (≈ 111 µM) and an MIC [2] of 8 µg/mL.

`O=[N+]([O-])c1ccc(OCCCCCCCCNCCc2ccc(F)cc2)cc1` gave an MIC (Staphylococcus aureus [1]) of 8 µg/mL (≈ 20.6 µM) and an MIC [2] of 16 µg/mL.

With `COc1ccc2ccc(OCCCCCCCCOCC=C(C)C)cc2c1` the MIC (Staphylococcus aureus [1]) was greater than 256 µg/mL.

For `O=[N+]([O-])c1ccc(OCCCCCCCCOc2ccc([N+](=O)[O-])cc2)cc1`, the MIC (Staphylococcus aureus [1]) was 64 µg/mL (≈ 165 µM).

In the case of `CC(C)=CCC/C(C)=C/CN1CCCCC1`, the MIC (Staphylococcus aureus [1]) is reported as 64 µg/mL (≈ 289 µM).

`Fc1ccc(CCNCCCOc2ccc3ccc(OCCCNCCc4ccc(F)cc4)cc3c2)cc1` gave an Activity (Staphylococcus aureus [19]) of 78%, an Activity (Staphylococcus aureus [11]) of 3 µg/mL and an Activity (Staphylococcus aureus [20]) of 71%.
